# Patent EP0623346B1, “INHIBITOR FOR METASTASIS OF MALIGNANT TUMOR” (TORAY INDUSTRIES, INC., priority 1992, dated 1994)
# Marks after values point to notes of the source that are not given here.
# Key:
# Mouse Melanoma B16F10 = assay: Effectiveness on blood-mediated metastasis in mice of mouse melanoma B16F10 (lung metastasized nodes); assay type: in vivo, C57/BL6 mice; details: for Number of Metastasized Nodes (mean ± standard error): simultaneously with 10^6 cells/mouse in tail vein, lung surface nodes counted after 14 days; for Metastasis Inhibition Rate (%): versus control group, p< 0.001
# Protocol: [Effectiveness on Blood-mediated Metastasis in Mice of Mouse Melanoma B16F10]
# Liquid-cultured mouse melanoma cells were transplanted in tail veins of C57/BL6 mice (6 weeks old, male) in an amount of 10^6 cells/mouse. Simultaneously, beraprost sodium salt was administered intravenously at a dose of 0.03 mg/kg, 0.1 mg/kg or 0.3 mg/kg. To a control group, phosphate buffer saline was administered. Fourteen days after the administration, mice were sacrificed and the lung was removed from each mouse. From the trachea communicating to the lung, 10% neutral buffered formalin solution was poured to inflate the lung, and the lung was immersed in 10% neutral buffered formalin solution to fix the lung. Several days later, each lung was divided and the number of the metastasized nodes on the surface of each leaf was counted with a stereoscopic microscope.
# The statistical analysis of this example was carried out according to the student's t-test.
# Acute toxicity test = assay type: in vivo, rats; details: for LD50: 14 days observation, 95% reliable limit in parentheses, Litchfield-Wilcoxon Method
# Protocol: Acute toxicity test was carried out using rats.
# The numbers in parentheses indicate 95% reliable limit.
smiles,measurement,setting,value
"CC#CCC(C)[C@H](O)/C=C/[C@@H]1[C@H]2c3cccc(CCCC(=O)O)c3O[C@H]2C[C@H]1O (mixture of isomers) [Beraprost, (±)-(1R*, 2R*, 3aS*, 8bS*)-2,3,3a,8b-tetrahydro-2-hydroxy-1-[(E)-(3S*)-3-hydroxy-4-methyl-1-octene-6-inyl]-1H-cyclopenta[b]benzofuran-5-butyric acid]",Number of Metastasized Nodes (mean ± standard error),Mouse Melanoma B16F10; 0.03 mg/kg intravenously,204 ± 24
same,Metastasis Inhibition Rate (%),Mouse Melanoma B16F10; 0.03 mg/kg intravenously,48*** %
same,Number of Metastasized Nodes (mean ± standard error),Mouse Melanoma B16F10; 0.1 mg/kg intravenously,160 ± 28
same,Metastasis Inhibition Rate (%),Mouse Melanoma B16F10; 0.1 mg/kg intravenously,52*** %
same,Number of Metastasized Nodes (mean ± standard error),Mouse Melanoma B16F10; 0.3 mg/kg intravenously,167 ± 21
same,Metastasis Inhibition Rate (%),Mouse Melanoma B16F10; 0.3 mg/kg intravenously,49*** %
same,maximum inhibition rate of metastasis of B16F10 to mouse lungs,Mouse Melanoma B16F10; maximum over doses 0.03-0.3 mg/kg intravenously,52%
same,LD50,"Acute toxicity test; Intravenous, Female",13 (10-16) mg/kg
same,LD50,"Acute toxicity test; Intravenous, Male",18 (15-22) mg/kg
same,LD50,"Acute toxicity test; Oral, Female",12 (9-15) mg/kg
same,LD50,"Acute toxicity test; Oral, Male",15 (13-19) mg/kg
same,LD50,"Acute toxicity test; Subcutaneous, Female",7 ( 6- 9) mg/kg
same,LD50,"Acute toxicity test; Subcutaneous, Male",13 (12-14) mg/kg
same,"pathological observation, main findings","Acute toxicity test; animals that were killed, common to male and female and to all administration routes","slight to medium congestion in lung, slight to medium bleeding in glandular stomach and slight small intestine catarrh"
